Patent US6737383B1, “Herbicidal oxadiazolidines” (priority 1999, dated 2004)

How the values were obtained:
pigweed = experiment: Test B pre/postemergence pigweed; assay type: in vivo, Amaranthus retroflexus; settings: for Redroot pigweed plant response rating (0 to 10 scale): 0 is no effect
How it was run: (§1)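 Herbicidal effect was estimated by eye on a ten-point control scale after plants spent twelve to sixteen days in a greenhouse following soil or foliar treatment. Foliar sprays targeted plants at one to four leaves; all doses were formulated in a non-phytotoxic solvent with surfactant.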

sugar beet = experiment: Test B pre/postemergence sugar beet; assay type: in vivo, Beta vulgaris; settings: for Sugarbeets plant response rating (0 to 10 scale): 0 is no effect
How it was run: as §1

rape = experiment: Test B pre/postemergence rape; assay type: in vivo, Brassica napus; settings: for Rape plant response rating (0 to 10 scale): 0 is no effect
How it was run: as §1

[1] = Preemergence, Rate 62 g/ha, scale of 0 to 10 where 0 is no effect and 10 is complete control
[2] = Preemergence, Rate 125 g/ha, 10 is complete control
[3] = Preemergence, Rate 250 g/ha, scale 0 to 10, 0 is no effect, 10 is complete control
[4] = Preemergence, Rate 500 g/ha, scale of 0 to 10 where 0 is no effect and 10 is complete control
[5] = Rate 62 g/ha, Postemergence, scale of 0 to 10 where 0 is no effect and 10 is complete control
[6] = Rate 125 g/ha, Postemergence, scale 0 to 10
[7] = Rate 500 g/ha, Postemergence, scale 0 to 10
[8] = Preemergence, Rate 31 g/ha, visual rating, scale 0 to 10 (0 no effect, 10 complete control)
[9] = Preemergence, Rate 250 g/ha, scale of 0 to 10 where 0 is no effect and 10 is complete control
[10] = Rate 31 g/ha, Postemergence, scale 0 to 10
[11] = Rate 125 g/ha, Preemergence, scale of 0 to 10 where 0 is no effect and 10 is complete control
[12] = Rate 500 g/ha, Postemergence, scale 0 to 10, 0 no effect, 10 complete control

Row | Compound | Redroot pigweed plant response rating (pigweed; [1]) | Redroot pigweed plant response rating (0 to 10 scale) (pigweed; [2]) | Redroot pigweed plant response rating (pigweed; [3]) | Plant response rating, Redroot pigweed (pigweed; [4]) | Redroot pigweed plant response rating (pigweed; [5]) | Redroot pigweed plant response rating (pigweed; [6]) | Plant response rating (0 to 10; 0 is no effect, 10 is complete control), Redroot pigweed (pigweed; Rate 250 g/ha, Postemergence) | Redroot pigweed plant response rating (pigweed; [7]) | Sugarbeets plant response rating (sugar beet; [1]) | Sugarbeets plant response rating (0 to 10 scale) (sugar beet; [2]) | Sugarbeets plant response rating (sugar beet; [3]) | Plant response rating, Sugarbeets (sugar beet; [4]) | Sugarbeets plant response rating (sugar beet; [5]) | Sugarbeets plant response rating (sugar beet; [6]) | Plant response rating (0 to 10; 0 is no effect, 10 is complete control), Sugarbeets (sugar beet; Rate 250 g/ha, Postemergence) | Rape plant response rating (rape; [1]) | Plant response rating, Rape (rape; [4]) | Rape plant response rating (rape; [5]) | Rape plant response rating (rape; [6]) | Plant response rating (0 to 10; 0 is no effect, 10 is complete control), Rape (rape; Rate 250 g/ha, Postemergence) | further results
1 | CCC(CC)N(C(=O)n1oc(=O)n(-c2ccccc2C)c1=O)c1ccc(F)cc1 [Compound 193] | 0 | 0 | 0 | 0 | 0 | 0 | 0 | 0 | 0 | 0 | 0 | 0 | 0 | 0 | 0 | 0 | 0 | 0 | 0 | 0 | Sugarbeets plant response rating (sugar beet; [7]): 0; Rape plant response rating (0 to 10 scale) (rape; [2]): 0; Rape plant response rating (rape; [3]): 0; Rape plant response rating (rape; [7]): 0
2 | C=CCn1c(=O)on(C(=O)N(c2ccc(F)cc2)C2CCC2)c1=O [Compound 194] | 5 | 7 | 8 | 10 | 0 | 0 | 0 | 0 | 0 | 0 | 2 | 3 | 0 | 0 | 0 | 0 | 7 | 0 | 0 | 0 | Sugarbeets plant response rating (sugar beet; [7]): 0; Rape plant response rating (0 to 10 scale) (rape; [2]): 0; Rape plant response rating (rape; [3]): 2; Rape plant response rating (rape; [7]): 2
3 | Cc1ccccc1-n1c(=O)on(C(=O)N(c2ccc(Cl)cc2F)C(C)C)c1=O [Compound 195] | 0 | 0 | 0 | 0 | 0 | 0 | 2 | 4 | 0 | 0 | 0 | 2 | 0 | 0 | 0 | 0 | 0 | 0 | 0 | 0 | Sugarbeets plant response rating (sugar beet; [7]): 2; Rape plant response rating (0 to 10 scale) (rape; [2]): 0; Rape plant response rating (rape; [3]): 0; Rape plant response rating (rape; [7]): 0
4 | CCCCn1c(=O)on(C(=O)N(c2ccc(F)cc2)C(C)C)c1=O [Compound 221] | 9 |  |  |  | 6 | 8 | 8 |  | 0 |  |  |  | 0 | 4 | 4 | 0 |  | 0 | 4 | 4 | Redroot pigweed plant response rating (pigweed; [8]): 7; Redroot pigweed plant response rating (pigweed; [9]): 10; Redroot pigweed plant response rating (pigweed; [10]): 2; Redroot pigweed plant response rating (pigweed; [11]): 10; Sugarbeets plant response rating (sugar beet; [8]): 0; Sugarbeets plant response rating (sugar beet; [9]): 10; Sugarbeets plant response rating (sugar beet; [11]): 4; Rape plant response rating (rape; [8]): 0; Rape plant response rating (rape; [9]): 8; Rape plant response rating (rape; [10]): 0; Rape plant response rating (rape; [11]): 6
5 | CC(C)N(C(=O)n1oc(=O)n(CC2(C)COC2)c1=O)c1ccc(F)cc1 [Compound 226] | 0 |  |  | 9 | 0 | 0 | 0 |  | 0 |  |  | 6 | 0 | 0 | 0 | 0 | 10 | 0 | 0 | 0 | Redroot pigweed plant response rating (pigweed; [9]): 7; Redroot pigweed plant response rating (pigweed; [11]): 0; Redroot pigweed plant response rating (pigweed; [12]): 0; Sugarbeets plant response rating (sugar beet; [9]): 5; Sugarbeets plant response rating (sugar beet; [11]): 3; Sugarbeets plant response rating (sugar beet; [12]): 2; Rape plant response rating (rape; [9]): 7; Rape plant response rating (rape; [11]): 0; Rape plant response rating (rape; [12]): 6
6 | Cc1ccccc1-n1c(=O)on(C(=O)N(c2ccc(N(C)C)cc2)C(C)C)c1=O [Compound 237] | 0 |  |  | 0 | 0 | 0 | 2 |  | 0 |  |  | 0 | 0 | 0 | 0 | 0 | 0 | 0 | 0 | 0 | Redroot pigweed plant response rating (pigweed; [9]): 0; Redroot pigweed plant response rating (pigweed; [11]): 0; Redroot pigweed plant response rating (pigweed; [12]): 3; Sugarbeets plant response rating (sugar beet; [9]): 0; Sugarbeets plant response rating (sugar beet; [11]): 0; Sugarbeets plant response rating (sugar beet; [12]): 0; Rape plant response rating (rape; [9]): 0; Rape plant response rating (rape; [11]): 0; Rape plant response rating (rape; [12]): 0
